From patent US9511055B2, “Angiotensin in treating brain conditions” (TARIX PHARMACEUTICALS LTD., priority 2012, dated 2016)

How the values were obtained:
Format in all cases: in vivo
[1] = tested on: MCAO rat model of ischemic stroke; experiment: Body swing test after tMCAO; details: for body swing test performance vs control: continuous s.c. Alzet pump; for body swing test performance vs vehicle control / body swing test performance level: Example 2, 28 days; for body swing test performance level: Day 49
Experimental: (§1) For the purposes of this example, Transient middle cerebral artery occlusion (tMCAO) procedure Day is defined as “Day 1” in this study. On the day of surgery anesthesia were induced with 4% isoflurane in a mixture of 70% N2O and 30% O2 and maintained with 1.5-2% isoflurane.
(§2) The tMCAO procedures were performed according to the method described R. Schmid-Elsaesser et al. Briefly, the right CCA (Common Carotid Artery) was exposed through a midline neck incision and carefully dissected free from surrounding nerves and fascia—from its bifurcation to the base of the skull. The occipital artery branches of the ECA (External Carotid Artery) were then isolated, and these branches were dissected and coagulated. The ECA was dissected further distally and coagulated along with the terminal lingual and maxillary artery branches, which was then divided. The ICA (Internal Carotid Artery) was isolated and carefully separated from the adjacent vagus nerve, and the pterygopalatine artery was ligated close to its origin with a 5-0 nylon suture (SMI, Belgium). Next, a 4-0 silk suture was tied loosely around the mobilized ECA stump, and a 4 cm length of 4-0 monofilament nylon suture (the tip of the suture was blunted by using a flame, and the suture was coated with polylysine, prior to insertion) was inserted through the proximal ECA into the ICA and thence into the circle of Willis, effectively occluding the MCA. The surgical wound was closed and the animals were returned to their cages to recover from anesthesia. One hour and a half after occlusion rats were re-anesthetized, the monofilament was withdrawn to allow reperfusion, the surgical wound was closed and rats were returned to their cages.
(§3) Animals were subjected to a modified Modified Neurological Rating Scale (mNRS) at 24 hours post reperfusion. Only animals with an overall score of ≧10 are included in this study. Animals were allocated into the test groups, according to the mNRS results on day 2, in order to have similar distribution of rats performance between groups. Started on day 2, 24 hours post-surgery, each animal is implanted subcutaneously with osmotic Alzet pump and is treated by continuous PanCyte administration (2.5 mg/ml or 25 mg/ml in PBS; SEQ ID NO:22).
The rat was held approximately one inch from the base of its tail. It was then elevated to an inch above a surface of a table. The rat was held in the vertical axis, defined as no more than 10° to either the left or the right side. A swing was recorded whenever the rat moved its head out of the vertical axis to either side. Before attempting another swing, the rat had to return to the vertical position for the next swing to be counted. Twenty (20) total swings were counted. A normal rat typically has an equal number of swings to either side. Following focal ischemia, rats tend to swing to the contralateral side (left side in this example). Body swing scores are expressed as a percentage of rightward over total swings. […] Four groups were analyzed in this test, a control group (receiving only PBS for 49 days), a group receiving 50 μg/kg PanCyte for 49 days, a group receiving 500 μg/kg PanCyte for 49 days, and a group receiving 50 μg/kg PanCyte for 14 days.
Animals were subjected to a modified Modified Neurological Rating Scale (mNRS) at 24 hours post reperfusion. Only animals with an overall score of ≧10 were included in this study. Animals were allocated into the test groups, according to the mNRS results on day 2, in order to have similar distribution of rats performance between groups. Starting on day 2, 24 hours post-surgery, animals in groups 4, 5 and 7 were implanted subcutaneously with an osmotic Alzet pump and treated with either 500 μg/kg TXA127 (SEQ ID NO:1), 500 μg/kg PanCyte (SEQ ID NO:22), or 50 μg/kg Linear PanCyte (SEQ ID NO:6). Animals in groups 2, 3 and 6 received 500 μg/kg or 1,000 μg/kg TXA127 or 500 μg/kg PanCyte, administered subcutaneously via daily injection. […]

[2] = tested on: MCAO rat model of ischemic stroke; experiment: Forelimb placement test after tMCAO; details: for forelimb placing test performance vs control: Example 1, continuous s.c. Alzet pump
Experimental: as §1, §2, §3
The limb placing tests were divided into both forelimb and hindlimb tests. For the forelimb-placing test, the examiner held the rat close to a tabletop and scored the rat's ability to place the forelimb on the tabletop in response to whisker, visual, tactile, or proprioceptive stimulation. Similarly, for the hindlimb placing test, the examiner assessed the rat's ability to place the hindlimb on the tabletop in response to tactile and proprioceptive stimulation. […]

[3] = tested on: MCAO rat model of ischemic stroke; experiment: Stepping test (forelimb akinesia) after tMCAO; details: for stepping test performance vs control: day 15; for stepping test performance vs vehicle control: all experimental conditions (s.c. daily injection or Alzet pump, 28 days), by Day 21 post-surgery
Experimental: as §1, §2, §3
Animals were tested for forelimb akinesia in a stepping test. The animal was held with its hind limbs fixed with one hand and the forelimb not monitored with the other, while the unrestrained fore-paw touches a table. The number of adjusting steps were counted while the animal was moved sideways along the table surface (85 cm in approximately five seconds), in the forehand & backhand direction for both forelimbs. […] Four groups were analyzed in this test, a control group (receiving only PBS for 49 days), a group receiving 50 μg/kg PanCyte for 49 days, a group receiving 500 μg/kg PanCyte for 49 days, and a group receiving 50 μg/kg PanCyte for 14 days.
(§4) Animals were subjected to a modified Modified Neurological Rating Scale (mNRS) at 24 hours post reperfusion. Only animals with an overall score of ≧10 were included in this study. Animals were allocated into the test groups, according to the mNRS results on day 2, in order to have similar distribution of rats performance between groups. Starting on day 2, 24 hours post-surgery, animals in groups 4, 5 and 7 were implanted subcutaneously with an osmotic Alzet pump and treated with either 500 μg/kg TXA127 (SEQ ID NO:1), 500 μg/kg PanCyte (SEQ ID NO:22), or 50 μg/kg Linear PanCyte (SEQ ID NO:6). Animals in groups 2, 3 and 6 received 500 μg/kg or 1,000 μg/kg TXA127 or 500 μg/kg PanCyte, administered subcutaneously via daily injection. Animals in group 1 were treated with a daily subcutaneous injection of a PBS (vehicle).
Animals were tested for forelimb akinesia in a stepping test (ST). The animal was held with its hind limbs fixed with one hand and the forelimb not to be monitored with the other, while the unrestrained fore-paw touches the table. […]

[4] = tested on: MCAO rat model of ischemic stroke; experiment: Modified Neurological Rating Scale (mNRS) evaluation after tMCAO; details: Example 1, continuous s.c. Alzet pump
Experimental: as §1
as §2, with “cages. […]” for “cages.”
The Modified Neurological Rating Scale (mNRS) was administered by an individual who was unaware of the drug/dose given (blind test). […] Four groups were analyzed in this test, a control group (receiving only PBS for 49 days), a group receiving 50 μg/kg PanCyte for 49 days, a group receiving 500 μg/kg PanCyte for 49 days, and a group receiving 50 μg/kg PanCyte for 14 days. […]

[5] = tested on: MCAO rat model of ischemic stroke; experiment: Overall post-stroke performance in tMCAO rats, Example 2 comparison; details: 50 μg/kg Linear PanCyte as compared to 500 μg/kg of PanCyte
Experimental: The animal model, surgical procedures, and animal care procedures and conditions were as described above for Example 1 unless otherwise specified.
as §4
In addition to the performance benefits discussed above, blood flow and blood vessel diameter was measured using Laser Doppler, according to known protocols, in each non-Alzet group on Day 50.

Which “body swing test performance vs control” value ([1]; Example 1, 50 μg/kg for 14 days, from day 29) does the source give for `CCC(C)C1NC(=O)C(NC(=O)C(NC(=O)C(CCCNC(=N)N)NC(=O)C(N)CC(=O)O)C(C)C)CSCC(C(=O)O)NC(=O)C(Cc2c[nH]cn2)NC1=O` (centres unmarked) [PanCyte, Asp^1-Arg^2-Val^3-Ser^4-Ile^5-His^6-Cys^7 (SEQ ID NO: 22)] here?
The value was “showed statistical significance beginning on day 29”.

What about the “body swing test scores vs control” value ([1]; Example 1, all treatment groups, from day 8) of the same compound?
Its value is “trend toward improved scores beginning on day 8”.

And the “body swing test performance vs control” value ([1]; Example 1, each PanCyte group (50 μg/kg 49 days, 500 μg/kg 49 days, 50 μg/kg 14 days), day 36)?
Its value is “improved performance on the test by day 36”.

And the “body swing test performance vs vehicle control” value ([1]; 500 μg/kg daily s.c. injection, Day 28)?
Its value is “significant improvement in performance by Day 28”.

What about the “body swing test performance vs vehicle control” value ([1]; PanCyte Alzet group, 500 μg/kg s.c. Alzet pump, Day 21) of the same compound?
The value was “showed improvement by Day 21”.

And the “body swing test performance vs vehicle control” value ([1]; PanCyte Alzet group, 500 μg/kg s.c. Alzet pump, Day 28)?
The value was “significant improvement in performance by Day 28”.

And the “forelimb placing test performance vs control” value ([2]; 50 μg/kg for 14 days, from day 15)?
Its value is “performed significantly better than control animals beginning on day 15”.

And the “forelimb placing test performance vs control” value ([2]; each PanCyte group (50 μg/kg 49 days, 500 μg/kg 49 days, 50 μg/kg 14 days), day 29, continued to day 36)?
Its value is “increased performance on this test by day 29”.

What about the “forelimb placing test performance vs control” value ([2]; other treatment groups (50 μg/kg 49 days, 500 μg/kg 49 days), trending before day 29) of the same compound?
Its value is “did not reach statistical significance until day 29”.

What about the “stepping test performance vs control” value ([3]; Example 1, 50 μg/kg for 14 days, continuous s.c. Alzet pump, trending toward improvement) of the same compound?
Its value is “did not reach statistically significant levels”.

What about the “stepping test performance vs control” value ([3]; Example 1, 50 μg/kg for 49 days, continuous s.c. Alzet pump) of the same compound?
Its value is “performed significantly better than controls”.

What about the “stepping test performance vs control” value ([3]; Example 1, 500 μg/kg for 49 days, continuous s.c. Alzet pump, trending toward improvement) of the same compound?
The value was “did not reach statistically significant levels”.

What about the “stepping test performance (number of adjusting steps) vs control” value ([3]; Example 1, each PanCyte group (50 μg/kg 49 days, 500 μg/kg 49 days, 50 μg/kg 14 days), continuous s.c. Alzet pump, day 22, continued through day 36) of the same compound?
Its value is “increased performance of rats by day 22”.

And the “stepping test performance vs vehicle control” value ([3]; Example 2)?
Its value is “significantly improved the performance of treated rats”.

What about the “mNRS performance vs control” value ([4]; 50 μg/kg for 49 days, days 8 and 15) of the same compound?
The value was “statistically improved performance on days 8 and 15”.

And the “mNRS performance vs control” value ([4]; 500 μg/kg for 49 days, day 22)?
Its value is “statistically improved performance on day 22”.

And the “mNRS performance vs control” value ([4]; each PanCyte group (50 μg/kg 49 days, 500 μg/kg 49 days, 50 μg/kg 14 days), day 29 and 36)?
The value was “improved performance on the test by day 29”.

For “Asp^1-Arg^2-Val^3-Ser^4-Ile^5-His^6-Cys^7 (SEQ ID NO:6) (DRVSIHC) [Linear PanCyte, non-cyclized form of PanCyte]”, which “body swing test performance vs vehicle control” value ([1]; 50 μg/kg s.c. Alzet pump, Day 21) is on record?
The value was “showed improvement by Day 21”.

And the “body swing test performance vs vehicle control” value ([1]; 50 μg/kg s.c. Alzet pump, Day 28)?
Its value is “significant improvement in performance by Day 28”.

And the “body swing test performance level” value ([1]; 50 μg/kg s.c. Alzet pump)?
Its value is “near-normal (uninjured) level”.

And the “effectiveness compared with PanCyte” value [5]?
The value was “almost equally effective”.

What about the “forelimb placing test performance compared with the other experimental groups” value ([2]; Example 2, 50 μg/kg, s.c. Alzet pump, 28 days, particularly from Day 35 onward) of the same compound?
Its value is “best performance”.

And the “stepping test results compared with ten times as much TXA127 or PanCyte” value ([3]; Example 2, 50 ug/kg, s.c. Alzet pump, 28 days, vs 500 μg/kg TXA127 or PanCyte)?
Its value is “substantially equivalent”.

What about the “stepping test performance vs vehicle control” value ([3]; Example 2) of the same compound?
Its value is “significantly improved the performance of treated rats”.

Which “body swing test performance vs vehicle control” value ([1]; 500 μg/kg daily s.c. injection, before Day 35) does the source give for “Asp^1-Arg^2-Val^3-Tyr^4-Ile^5-His^6-Pro^7 (SEQ ID NO: 1) (DRVYIHP) [TXA127]” here?
Its value is “did not show significant results until Day 35”.

What about the “body swing test performance vs vehicle control” value ([1]; 500 μg/kg s.c. Alzet pump, Day 21) of the same compound?
The value was “showed improvement by Day 21”.

And the “body swing test performance vs vehicle control” value ([1]; 500 μg/kg s.c. Alzet pump, Day 28)?
The value was “significant improvement in performance by Day 28”.

And the “body swing test performance vs vehicle control” value ([1]; 1,000 μg/kg daily s.c. injection, Day 21)?
Its value is “showed improvement by Day 21”.

What about the “body swing test performance vs vehicle control” value ([1]; 1,000 μg/kg daily s.c. injection, Day 28) of the same compound?
The value was “significant improvement in performance by Day 28”.

And the “body swing test performance level” value ([1]; TXA 1,000 g/kg group, daily s.c. injection)?
The value was “near-normal (uninjured) level”.

What about the “body swing test performance level” value ([1]; TXA Alzet group, 500 μg/kg s.c. Alzet pump) of the same compound?
Its value is “near-normal (uninjured) level”.

And the “stepping test performance vs vehicle control” value ([3]; Example 2)?
Its value is “significantly improved the performance of treated rats”.
